# Results from US20180369186A1, “METHOD FOR MODULATING AUTOPHAGY AND APPLICATIONS THEREOF” (JAWAHARLAL NEHRU CENTRE FOR ADVANCED SCIENTIFIC RESEARCH, priority 2015, published 2018).
# Columns and labels:
# MAP1LC3B = MAP1LC3B conversion assay in HeLa cells; assay type: cell-based, human
# Procedure: Total cell lysates are electrophoresed on different 1 percentages of SDS-PAGE based on the desired protein size and transferred onto PVDF membrane at constant current of 2 Ampere for 30 minutes (Transblot turbo, Bio-Rad Inc, USA). Transfer is confirmed by Ponceau S staining of blot and the blots scanned are used as loading controls. Blots are incubated overnight with 5% skim milk in primary antibody (Anti-GFP, Roche #11814460001, Anti-MAP1LC3B, CST #L7543). Secondary antibody used at 1:10.000 is goat anti-mouse (Bio-7 Rad #172-1011) or goat anti-rabbit antibody (Bio-Rad #172-1019) conjugated to HRP. Blots are developed by using ECL substrate (Thermo Scientific #34087 or Bio-Rad #170-5061) and images captured using auto capture program in Syngene G-Box, UK. image J (NIH) are used for quantitation of band intensities.
# For mammalian cells, following appropriate treatments, cells are washed with ice cold PBS. Cells are then lysed in 100 μl of sample buffer (10% w/v SDS, 10 mM DTT, 20% v/v glycerol, 0.2 Tris-HCL pH 6.8, 0.05% w/v bromophenol blue) and then collected using a rubber cell scraper. The lysates are boiled at 99° C. for 15 minutes and stored at −20° C.
# Pot1-GFP (peroxisomes) = assay: Pot1-GFP pexophagy assay; assay type: cell-based, S. cerevisiae
# Procedure: Pot1-GFP positive strains are allowed to grow till the A600 reached 0.8-1 in YPD. Peroxisome biogenesis is induced by growing these cells in oleate medium (0.1% oleate, 0.5% Tween-40, 0.25% yeast extract, 0.5% peptone, and 5 mM phosphate buffer) for 12hours. Cells are harvested, washed twice to remove traces of oleate and transferred to starvation medium without nitrogen, at inoculum density A600 3, to induce pexophagy. Cells are collected at various time intervals after pexophagy induction and processed by TCA method.
# Pot1-GFP positive strains are allowed to grow in yeast extract peptone dextrose (YPD) (2% dextrose, 2% peptone and 1% yeast extract) till the Absorbance at 600 nm reaches 0.6-0.8. Peroxisome biogenesis is induced by growing these cells in YPG medium (1% yeast extract, 2% peptone, 3% glycerol) for 12 hours.
# Cells are harvested, washed twice to remove traces of oleate and transferred to starvation medium with and without Acacetin, at. inoculum density Absorbance at 600 nm 3/ml, to induce pexophagy. Cells are collected at various time intervals after pexophagy induction and processed by TCA precipitation.
# p62/SQSTM1 = assay: p62 aggregate immunofluorescence in MEFs; assay type: cell-based, mouse; details: 5 μM, 24 h and 48 h
# Procedure: Immunofluorescence analysis in MEFs is carried out by fixing the cells with 4% methanol free paraformaldehyde for 15 minutes, permeabilised with 0.5% TritonX-100 in PBS for 10 minutes, and then blocking with 5% FES in PBS for 30 minutes at room temperature, along with PBS washes in between every steps. Anti-p62 antibody (Progen Biotechnik, GP62-C) is used at 1:250 dilution in […] in PBS and incubated overnight at 4° C. Cells are then washed and incubated with goat anti-guinea pig Alexa 594 (ThermoFisher Scientific, A-15 11076) secondary antibody at 1:1000 dilution for 1 hour at room temperature. Cells are washed, counterstained with DAPI (ThermoFisher Scientific, D1306) in PBS for 5 minutes, washed again and then mounted using Prolong diamond anti-fade reagent (ThermoFisher Scientific, P36970). Slides are imaged using a Zeiss LSM 510 Meta Confocal Microscope using 100× objective. Analysis is performed by assessing for the percentage of cells displaying an accumulation of endogenous p62-positive aggregates.
# Analysis of p62 aggregates is done as described previously. […] The percentage of cells with increased p62+ aggregates is quantified by assessing 200 cells per condition from independent experiments, in which a cell with an accumulation of p62+ aggregates was given a score of 1 whereas a cell having basal (low) levels of p62+ aggregates was given a score of 0.
# p62 = p62 co-localization with mRFP-MAP1LC3B in HeLa cells; assay type: cell-based, human
# Procedure: Appropriate number of cells are plated on top of coverslips placed in 65 mm cell culture dishes for transfection. Transfected cells are divided into different treatment groups. Post treatment, cells are washed with PBS and fixed in 4% paraformaldehyde and permeabilized using 0.25% Triton X-100, Overnight incubation with Anti-p62/SQSTM1 (rabbit polyclonal, #PM045), Anti-EEA1 (rabbit polyclonal, CST #3288) is done at 4° C. Excess antibody is washed with PBS and coverslips are incubated with Atto-633 (goat anti-rabbit IgG, Sigma #41176). The coverslips are mounted with […] antifade reagent (H-1000/H-1200, Vector laboratories). Imaging for HeLa cells is carried out using Delta vision microscope (Olympus 60×/1.42, Plan ApoN, excitation and emission filter Cy5, FITC and TRITC, polychroic Quad).
# ImageJ software (NIH) is used to calculate the mean intensity. Images are opened using the split channel plugin. Co-localization plugin in the analysis tools is used to obtain the colocalized area between two channels as a separate window. The intensity is calculated using the measure plugin in analysis tools.
# LC3-II = assay: LC3 processing assay in SH-SY5Y cells; assay type: cell-based, human; details: 5 μM, 2 h; untreated vs treated
# Procedure: The autophagy assays are performed by seeding equal numbers of sub-confluent 1-HeLa or SH-SY5Y cells in 6-well dishes and allowed to attach for 24 h, then treated with XCT 790 (5 μM) and/or 3-MA (5 mM) and/or lithium chloride (10 mM) in fed condition for 2 h. After treatments, the cell lysates are analyzed by immunoblotting.
# Mammalian cell lysates preparation: After treatments, cells are collected in Laemmli buffer to perform LC3 processing assay, P70S6K, AMPK, ULK1 and 4E-BP1 immunoblotting. Samples are electrophoresed onto SDS-PAGE (8-15%) and then transferred onto PVDF (Bio-Rad) membrane through Transblot turbo (Bio-Rad). Blots are stained with Ponceau S, then probed with appropriate primary antibodies at 4° C. for overnight and subsequently HRP-conjugated secondary antibody. Signals are attained using enhanced chemiluminescence substrate (Clarity, Bio-Rad) and imaged using a gel documentation system (G Box, Syngene) and then bands are quantitated using Image software (NIH).
# [1] = nutrient-rich and starvation conditions
structure (smiles),measurement,setting,value
"Cc1ccc(S(=O)(=O)/C=C/C#N)cc1 [Bay11, 3-[(4-methylphenyl)sulfonyl]-(2E)-propenenitrile]","MAP1LC3B-II/MAP1LC3B-I and MAP1LC3B-II/TUBB ratios, prolonged treatment",MAP1LC3B; 12 hours,significant reduction
same,MAP1LC3B-II/TUBB ratio with BFA (autophagosome synthesis),MAP1LC3B; in the presence of BFA,reduces MAP1LC3B12 II/TUBB ratio
same,MAP1LC3B-II/MAP1LC3B-I ratio,MAP1LC3B; [1],decreases MAP1LC3B-II/MAP1LC3B-I ratio
same,MAP1LC3B-II/TUBB ratio,MAP1LC3B; [1],no significant changes
same,degradation of peroxisomes (Pot1-GFP),Pot1-GFP (peroxisomes); starvation,delay the degradation of peroxisomes
same,localisation of peroxisomes (fluorescence microscopy),"Pot1-GFP (peroxisomes); starvation, 25 μM Bay11, 50 μM ZPCK",accumulate outside the vacuoles
same,free GFP release from Pot1-GFP,"Pot1-GFP (peroxisomes); wild type cells, up to 6 hours of starvation",No free GFP release
same,endogenous p62 aggregates,p62/SQSTM1,significant accumulation of endogenous p62 aggregates
same,p62 accumulation relative to mRFP-MAP1LC3B-positive compartments,p62,outside
"COc1cc(C=C(C#N)C(=O)Nc2nnc(C(F)(F)F)s2)ccc1OCc1ccc(C(F)(F)F)cc1C(F)(F)F [XCT 790, 3-[4-(2,4-Bis-trifluoromethylbenzyloxy)-3-methoxyphenyl]-2-cyano-N-(5-trifluoromethyl-1,3,4-thiadiazol-2-yl)acrylamide]",accumulation of LC3-II levels,LC3-II,~2.5 fold
